Assay results published in patent publication US11951094B2, “TLR2 modulator compounds, pharmaceutical compositions and uses thereof” (Axial Therapeutics, Inc., priority 2020, dated 2024).
Where a name gives a salt, the structure may show the parent alone.

Assays:
TLR2 [1] = target: T1, TLR2 (Mus musculus, UniProt Q9QUN7); experiment: TLR2 functional assay, cytokine release from RAW 264.7 mouse macrophage cell line; type: cell-based; settings: average of all runs
T1 construct: endogenous in cells; host or cells: RAW 264.7
Procedure: Cells of the immune system respond to TLR agonists in part by secreting cytokines. Functional assays for TLR2 agonists measure cytokine release from purified immune cells or immortalized cell lines derived from immune cells. Cytokine release is measured by standard ELISA approaches or multiplexed analysis using the Meso Scale Discovery (MSD) platform.
Purified primary human peripheral blood mononuclear cells or RAW 264.7 mouse macrophage cell line cells are plated at approximately 40,000 cells per well. Cells are treated with agonist compounds and assays 6-24 hours post-treatment for cytokines released into the cell culture media.
Following assay measurements utilizing either HEK-Blue detection or cytokine release, all data is analyzed with the GraphPad Prism8 statistical package to determine EC50, binding and activity metrics for the TLR2 modulators.
Numerous cell lines derived from various cell types can respond to TLR2 agonists with stereotyped cytokine and chemokine secretion. In particular, cell lines derived from macrophages respond robustly to TLR2 agonists by secreting a wide array of cytokines, including (but not limited to) TNF-alpha, IL-1, IL-10 and IL-12. The human monocytic cell line THP-1, the mouse macrophage line RAW-264.7, and the rat macrophage line NR8383 were used. For each assay, the respective cell lines were plated into 96-well plates overnight and then treated the following day with various TLR2-engaging compounds at varying concentrations. The next day, supernatants were collected and assayed by multiplex immunodetection for cytokines released (MSD detection kits for respective species).
Data provided in Table 5 is generated using protocols described in Example 45 and 46.

TLR2 [2] = target: TLR2 (Homo sapiens, UniProt O60603); experiment: TLR2 agonist screening assay, HEK-Blue TLR2 reporter cell line (NF-kB-driven SEAP, absorbance at 600 nm); type: cell-based; parameters: host or cells: HEK-293 (HEK-Blue TLR2 reporter cell line); settings: HEK-Blue TLR2 reporter cells, agonist mode
Method in brief: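 TLR2 engagement is scored through NF-kB-induced secreted alkaline phosphatase in HEK-293 cells, detected by substrate colour change at 600 nm after overnight compound treatment at 1% final DMSO. Potency is expressed as EC50.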

T1 sequence (Q9QUN7 25-784): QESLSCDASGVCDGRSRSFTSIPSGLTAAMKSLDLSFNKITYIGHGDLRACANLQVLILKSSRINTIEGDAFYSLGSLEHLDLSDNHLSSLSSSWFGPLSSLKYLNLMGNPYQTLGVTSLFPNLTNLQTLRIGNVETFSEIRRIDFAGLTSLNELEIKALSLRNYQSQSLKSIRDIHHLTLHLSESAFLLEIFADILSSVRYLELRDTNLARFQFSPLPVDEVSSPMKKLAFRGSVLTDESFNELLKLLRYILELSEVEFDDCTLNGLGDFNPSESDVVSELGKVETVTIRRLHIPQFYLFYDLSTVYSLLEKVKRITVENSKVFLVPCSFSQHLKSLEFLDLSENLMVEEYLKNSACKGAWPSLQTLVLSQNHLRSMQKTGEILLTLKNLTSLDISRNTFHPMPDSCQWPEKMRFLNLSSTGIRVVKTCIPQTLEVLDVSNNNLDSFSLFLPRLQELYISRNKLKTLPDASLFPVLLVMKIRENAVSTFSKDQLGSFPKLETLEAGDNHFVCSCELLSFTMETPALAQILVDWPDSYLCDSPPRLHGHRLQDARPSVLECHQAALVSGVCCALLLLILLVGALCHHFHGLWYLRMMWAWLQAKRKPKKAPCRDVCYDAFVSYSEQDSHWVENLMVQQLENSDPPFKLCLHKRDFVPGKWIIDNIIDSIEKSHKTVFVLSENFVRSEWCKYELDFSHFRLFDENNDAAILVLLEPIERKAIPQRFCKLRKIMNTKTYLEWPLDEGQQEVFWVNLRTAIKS
TLR2 (Homo sapiens, UniProt O60603), sequence (O60603 21-784): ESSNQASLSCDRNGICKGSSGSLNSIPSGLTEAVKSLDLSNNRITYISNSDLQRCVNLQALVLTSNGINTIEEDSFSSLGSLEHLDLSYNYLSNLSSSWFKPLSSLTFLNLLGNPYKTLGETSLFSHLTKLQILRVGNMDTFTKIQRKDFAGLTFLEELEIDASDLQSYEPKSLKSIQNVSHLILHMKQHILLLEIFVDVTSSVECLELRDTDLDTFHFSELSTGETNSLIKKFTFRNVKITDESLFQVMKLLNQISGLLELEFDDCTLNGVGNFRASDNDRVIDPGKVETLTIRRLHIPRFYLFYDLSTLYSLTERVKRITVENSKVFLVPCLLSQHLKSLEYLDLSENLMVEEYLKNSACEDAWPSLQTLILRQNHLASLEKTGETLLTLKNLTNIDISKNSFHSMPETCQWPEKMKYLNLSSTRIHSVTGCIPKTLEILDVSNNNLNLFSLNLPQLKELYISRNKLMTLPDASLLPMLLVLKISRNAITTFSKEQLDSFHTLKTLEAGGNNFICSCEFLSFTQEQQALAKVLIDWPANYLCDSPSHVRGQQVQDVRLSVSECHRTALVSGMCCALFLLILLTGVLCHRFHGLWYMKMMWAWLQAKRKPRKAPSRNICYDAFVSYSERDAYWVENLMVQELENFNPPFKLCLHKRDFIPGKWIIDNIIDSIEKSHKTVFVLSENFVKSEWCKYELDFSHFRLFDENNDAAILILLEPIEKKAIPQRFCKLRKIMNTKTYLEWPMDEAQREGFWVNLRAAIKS

Row | Structure (SMILES) | EC50 (TLR2 [1]) [nM] | EC50 (TLR2 [2]; average of all runs (Table 4)) [nM] | EC50 (TLR2 [2]; average of all runs (Table 3)) [nM]
1 | CCCCCCNC(=O)[C@H](Cn1cnc(-c2ccc(C(=O)N3C[C@@H](C(=O)N[C@H]4C[C@@H]4c4ccccc4)[C@H](C(=O)N[C@H]4C[C@@H]4c4ccccc4)C3)cc2)c1)NC(=O)CCCCCC [Compound 214, (3S,4S)-1-(4-(1-((S)-2-heptanamido-3-(hexylamino)-3-oxopropyl)-1H-imidazol-4-yl)benzoyl)-N3,N4-bis((1S,2R)-2-phenylcyclopropyl)pyrrolidine-3,4-dicarboxamide] | 0.1 to 50 | 51 to 350 | –
2 | CCCCCCCCNC(=O)N[C@@H](Cn1cc(-c2ccc(C(=O)N3C[C@@H](C(=O)N[C@H]4C[C@@H]4c4ccccc4)[C@H](C(=O)N[C@H]4C[C@@H]4c4ccccc4)C3)cc2)nn1)C(=O)NCCCCCC [Compound 221, (3S,4S)-1-(4-(1-((S)-3-(hexylamino)-2-(3-octylureido)-3-oxopropyl)-1H-1,2,3-triazol-4-yl)benzoyl)-N3,N4-bis((1S,2R)-2-phenylcyclopropyl)pyrrolidine-3,4-dicarboxamide] | 0.1 to 50 | 0.1 to 50 | –
3 | CCCCCCCCCCCOC(=O)N[C@H]1CN(C(=O)c2ccc(C(=O)N3C[C@@H](C(=O)N[C@H]4C[C@@H]4c4ccccc4)[C@H](C(=O)N[C@H]4C[C@@H]4c4ccccc4)C3)cc2)C[C@@H]1OC [Compound 215, undecyl ((3S,4S)-1-(4-((3S,4S)-3,4-bis(((1S,2R)-2-phenylcyclopropyl)carbamoyl)pyrrolidine-1-carbonyl)benzoyl)-4-methoxypyrrolidin-3-yl)carbamate] | > 1000 | 51 to 350 | –
4 | CCCCCCCNC(=O)[C@H](CNC(=O)c1ccc(C(=O)N2C[C@@H](C(=O)N[C@H]3C[C@@H]3c3ccccc3)[C@H](C(=O)N[C@H]3C[C@@H]3c3ccccc3)C2)cc1)NC(=O)CCCCCCC [Compound 184, (3S,4S)-1-(4-(((S)-3-(heptylamino)-2-octanamido-3-oxopropyl)carbamoyl)benzoyl)-N3,N4-bis((1S,2R)-2-phenylcyclopropyl)pyrrolidine-3,4-dicarboxamide] | 51 to 350 | 0.1 to 50 | –
5 | CCCCCCNC(=O)[C@H](CNC(=O)c1ccc(C(=O)N2C[C@@H](C(=O)N[C@H]3C[C@@H]3c3ccccc3)[C@H](C(=O)N[C@H]3C[C@@H]3c3ccccc3)C2)cc1)NC(=O)Cc1ccc(F)cc1 [Compound 138, (3S,4S)-1-(4-(((S)-2-(2-(4-fluorophenyl)acetamido)-3-(hexylamino)-3-oxopropyl)carbamoyl)benzoyl)-N3,N4-bis((1S,2R)-2-phenylcyclopropyl) pyrrolidine-3,4-dicarboxamide] | > 1000 | 0.1 to 50 | –
6 | CO[C@H]1CN(C(=O)c2ccc(C(=O)N3C[C@@H](C(=O)N[C@H]4C[C@@H]4c4ccccc4)[C@H](C(=O)N[C@H]4C[C@@H]4c4ccccc4)C3)cc2)C[C@@H]1NC(=O)N[C@H]1C[C@@H]1c1ccccc1 [Compound 224, (3S,4S)-1-(4-((3S,4S)-3-methoxy-4-(3-((1S,2R)-2-phenylcyclopropyl)ureido)pyrrolidine-1-carbonyl)benzoyl)-N3,N4-bis((1S,2R)-2-phenylcyclopropyl)pyrrolidine-3,4-dicarboxamide] | > 1000 | > 1000 | –
7 | CCCCCCCCCCCCCCC(=O)N[C@@H]1CCCN(C(=O)c2ccc(C(=O)N3C[C@@H](C(=O)N[C@H]4C[C@@H]4c4ccccc4)[C@H](C(=O)N[C@H]4C[C@@H]4c4ccccc4)C3)cc2)C1 [Compound 152, (3S,4S)-1-(4-((R)-3-pentadecanamidopiperidine-1-carbonyl)benzoyl)-N3,N4-bis((1S,2R)-2-phenylcyclopropyl)pyrrolidine-3,4-dicarboxamide] | > 1000 | 0.1 to 50 | –
8 | CCCCCCCCCOC(=O)N[C@@H](CNC(=O)c1ccc(C(=O)N2C[C@@H](C(=O)N[C@H]3C[C@@H]3c3ccccc3)[C@H](C(=O)N[C@H]3C[C@@H]3c3ccccc3)C2)cc1)C(=O)NCCCCCC [Compound 229, nonyl ((S)-3-(4-((3S,4S)-3,4-bis(((1S,2R)-2-phenylcyclopropyl)carbamoyl)pyrrolidine-1-carbonyl)benzamido)-1-(hexylamino)-1-oxopropan-2-yl)carbamate] | > 1000 | 0.1 to 50 | –
9 | CCCCCCCCCCCCCCC(=O)N[C@@H]1CN(C(=O)c2ccc(C(=O)N3C[C@@H](C(=O)N[C@H]4C[C@@H]4c4ccccc4)[C@H](C(=O)N[C@H]4C[C@@H]4c4ccccc4)C3)cc2)C[C@@H]1OC [Compound 209, (3S,4S)-1-(4-((3S,4R)-3-methoxy-4-pentadecanamidopyrrolidine-1-carbonyl)benzoyl)-N3,N4-bis((1S,2R)-2-phenylcyclopropyl)pyrrolidine-3,4-dicarboxamide] | > 1000 | 0.1 to 50 | –
10 | CCCCCCCCCCCCCCNC(=O)N[C@@H]1CCCN(C(=O)c2ccc(C(=O)N3C[C@@H](C(=O)N[C@H]4C[C@@H]4c4ccccc4)[C@H](C(=O)N[C@H]4C[C@@H]4c4ccccc4)C3)cc2)C1 [Compound 206, (3S,4S)—N3,N4-bis((1S,2R)-2-phenylcyclopropyl)-1-(4-((R)-3-(3-tetradecylureido)piperidine-1-carbonyl)benzoyl)pyrrolidine-3,4-dicarboxamide] | > 1000 | 0.1 to 50 | –
11 | CCCCCCNC(=O)[C@H](CNC(=O)c1ccc(C(=O)N2C[C@@H](C(=O)N[C@H]3C[C@@H]3c3ccccc3)[C@H](C(=O)N[C@H]3C[C@@H]3c3ccccc3)C2)cc1)NC(=O)N[C@H]1C[C@@H]1c1ccccc1 [Compound 222, (3S,4S)-1-(4-(((S)-3-(hexylamino)-3-oxo-2-(3-((1S,2R)-2-phenylcyclopropyl)ureido)propyl)carbamoyl)benzoyl)-N3,N4-bis((1S,2R)-2-phenylcyclopropyl)pyrrolidine-3,4-dicarboxamide] | 51 to 350 | 0.1 to 50 | –
12 | CCCCCCCCCCCCNC(=O)N[C@H]1CN(C(=O)c2ccc(C(=O)N3C[C@@H](C(=O)N[C@H]4C[C@@H]4c4ccccc4)[C@H](C(=O)N[C@H]4C[C@@H]4c4ccccc4)C3)cc2)C[C@@H]1OC [Compound 188, (3S,4S)-1-(4-((3S,4S)-3-(3-dodecylureido)-4-methoxypyrrolidine-1-carbonyl)benzoyl)-N3,N4-bis((1S,2R)-2-phenylcyclopropyl)pyrrolidine-3,4-dicarboxamide] | 351 to 1000 | 0.1 to 50 | –
13 | CCCCCCCC(=O)N1CCN(C(=O)c2ccc(C(=O)N3C[C@@H](C(=O)N[C@H]4C[C@@H]4c4ccccc4)[C@H](C(=O)N[C@H]4C[C@@H]4c4ccccc4)C3)cc2)CC1C(=O)NCCCC (mixture of isomers) [Compound 046, (3S,4S)-1-(4-(3-(butylcarbamoyl)-4-octanoylpiperazine-1-carbonyl)benzoyl)-N3,N4-bis((1S,2R)-2-phenylcyclopropyl)pyrrolidine-3,4-dicarboxamide] | – | – | 51 to 350
14 | CCCCCCCCN1CCN(C(=O)c2ccc(C(=O)N3C[C@@H](C(=O)N[C@H]4C[C@@H]4c4ccccc4)[C@H](C(=O)N[C@H]4C[C@@H]4c4ccccc4)C3)cc2)C[C@@H]1C(=O)NCCCCCC [Compound 037, (3S,4S)-1-(4-((R)-3-(hexylcarbamoyl)-4-octylpiperazine-1-carbonyl)benzoyl)-N3,N4-bis((1S,2R)-2-phenylcyclopropyl)pyrrolidine-3,4-dicarboxamide formate] | – | – | 51 to 350
